Data as given in US10538555B2, “Macrocyclic inhibitors of the PD-1/PD-L1 and CD80(B7-1)/PD-L1 protein/protein interactions” (BRISTOL-MYERS SQUIBB COMPANY, priority 2014, dated 2020).
Where a SMILES comes first, the peptide text is derived from it. Bridges are numbered along the chain shown (N, C = ends). [ ]: non-standard residue; d: D form. ξ: configuration not given here. Phe(3,4,5-F3) = N[C@@H](Cc1cc(F)c(F)c(F)c1)C(=O)O; Trp(5-Cl) = N[C@@H](Cc1c[nH]c2ccc(Cl)cc12)C(=O)O; ξTrp(7-aza) = NC(Cc1c[nH]c2ncccc12)C(=O)O; Pro(4R-NH2) = N[C@H]1CN[C@H](C(=O)O)C1; 1Nal = N[C@@H](Cc1cccc2ccccc12)C(=O)O; 2Nal = N[C@@H](Cc1ccc2ccccc2c1)C(=O)O; d(cisHyp) = O=C(O)[C@H]1C[C@@H](O)CN1; Hyp = O=C(O)[C@@H]1C[C@@H](O)CN1; NMeF = CN[C@@H](Cc1ccccc1)C(=O)O; Cha = N[C@@H](CC1CCCCC1)C(=O)O; NMeNle = CCCC[C@H](NC)C(=O)O; dPip = O=C(O)[C@H]1CCCCN1; Orn = NCCC[C@H](N)C(=O)O; Sar = CNCC(=O)O

Target: T1, Human PD-L1/PD-1 (Homo sapiens, UniProt Q9NZQ7)
T1 construct: TVMV protease cleavage site (C); made in house; host or cells: HEK293T cells
Assay: HTRF Human PD-L1/PD-1 binding assay (PD-1-Ig/PD-L1-His)
Conditions: PD-L1-His 10 nM, PD-1-Ig 20 nM; class symbol; read-out: HTRF Human PD-L1/PD-1 Binding Assay IC50 Range
In short: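 HTRF read-out (665/620 nm ratio) after 30 min equilibration with Eu-cryptate anti-Ig mAb (1 nM) and APC anti-His mAb (20 nM). Peptides preincubated 15 min with PD-L1-His (10 nM), then PD-1-Ig (20 nM) added for 15 min.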

T1 sequence (Q9NZQ7 with tags, fused parts or gaps): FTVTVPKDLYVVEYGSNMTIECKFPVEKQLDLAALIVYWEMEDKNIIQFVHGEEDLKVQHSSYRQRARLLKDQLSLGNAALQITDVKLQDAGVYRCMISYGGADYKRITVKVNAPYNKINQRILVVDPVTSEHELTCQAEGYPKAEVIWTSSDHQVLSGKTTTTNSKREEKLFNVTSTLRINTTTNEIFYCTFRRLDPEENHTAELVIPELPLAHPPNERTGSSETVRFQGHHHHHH

Compared with `CCCC[C@H]1C(=O)N2C[C@H](O)C[C@@H]2C(=O)N2C[C@H](N)C[C@H]2C(=O)N[C@@H](C(C)C)C(=O)N(C)[C@@H](Cc2ccccc2)C(=O)N[C@@H](CCC(=O)O)C(=O)N2CCCC[C@@H]2C(=O)N[C@@H](Cc2c[nH]c3ccccc23)C(=O)N[C@@H](Cc2ccc(O)cc2)C(=O)N[C@@H](CC(C)C)C(=O)N[C@H](C(=O)NCC(N)=O)CSCC(=O)N[C@@H](Cc2cc(F)c(F)c(F)c2)C(=O)N(C)[C@@H](Cc2ccccc2)C(=O)N1C` [Example 3227] ({CH2CO}-[Phe(3,4,5-F3)][NMeF][NMeNle][d(cisHyp)][Pro(4R-NH2)]V[NMeF]E[dPip]WYLCG-NH2; thioether N-13), `CCCC[C@H]1C(=O)N2C[C@H](O)C[C@@H]2C(=O)N2C[C@H](O)C[C@H]2C(=O)N[C@@H](C(C)C)C(=O)N(C)[C@@H](Cc2ccccc2)C(=O)N[C@@H](CCC(=O)O)C(=O)N2CCCC[C@@H]2C(=O)N[C@@H](Cc2c[nH]c3ccccc23)C(=O)N[C@@H](Cc2ccc(O)cc2)C(=O)N[C@@H](CCCN)C(=O)N[C@H](C(=O)NCC(N)=O)CSCC(=O)N[C@@H](Cc2cc(F)c(F)c(F)c2)C(=O)N(C)[C@@H](Cc2ccccc2)C(=O)N1C` [Example 3228] ({CH2CO}-[Phe(3,4,5-F3)][NMeF][NMeNle][d(cisHyp)][Hyp]V[NMeF]E[dPip]WY[Orn]CG-NH2; thioether N-13) is higher in IC50: 1 to 9.9 nM for the first, 10 to 99.9 nM for the second.

Compared with `CCCC[C@H]1C(=O)N(C)CC(=O)N[C@@H](CC(=O)O)C(=O)N[C@@H](C(C)C)C(=O)N(C)[C@@H](Cc2ccccc2)C(=O)N[C@@H](Cc2c[nH]c3ccccc23)C(=O)N(C)CC(=O)N[C@@H](Cc2c[nH]c3ccccc23)C(=O)N[C@@H](Cc2ccc(O)cc2)C(=O)N[C@@H](CC(C)C)C(=O)N[C@H](C(=O)NCC(N)=O)CSCC(=O)N[C@@H](Cc2ccccc2)C(=O)N(C)[C@@H](Cc2ccccc2)C(=O)N1C` [Example 3231] ({CH2CO}-F[NMeF][NMeNle][Sar]DV[NMeF]W[Sar]WYLCG-NH2; thioether N-13), `CCCC[C@H]1C(=O)N(C)CC(=O)N[C@@H](CC(=O)O)C(=O)N[C@@H](C(C)C)C(=O)N(C)[C@@H](Cc2ccccc2)C(=O)N[C@@H](Cc2ccc(O)cc2)C(=O)N(C)CC(=O)N[C@@H](Cc2c[nH]c3ccccc23)C(=O)N[C@@H](Cc2ccc(O)cc2)C(=O)N[C@@H](CC(C)C)C(=O)N[C@H](C(=O)NCC(N)=O)CSCC(=O)N[C@@H](Cc2cccc3ccccc23)C(=O)N(C)[C@@H](Cc2ccccc2)C(=O)N1C` [Example 3235] ({CH2CO}-[1Nal][NMeF][NMeNle][Sar]DV[NMeF]Y[Sar]WYLCG-NH2; thioether N-13) is higher in IC50: 1 to 9.9 nM for the first, 1000 to 10000 nM for the second. The first is the more potent here.

`CCCC[C@H]1C(=O)N(C)CC(=O)N[C@@H](CC(=O)O)C(=O)N[C@@H](C(C)C)C(=O)N[C@@H](Cc2c[nH]c3ccccc23)C(=O)N[C@@H](Cc2ccc(O)cc2)C(=O)N(C)CC(=O)N[C@@H](Cc2c[nH]c3ccccc23)C(=O)N[C@@H](Cc2ccc(O)cc2)C(=O)N[C@@H](CC(C)C)C(=O)N[C@H](C(=O)NCC(N)=O)CSCC(=O)N[C@@H](Cc2ccccc2)C(=O)N(C)[C@@H](Cc2ccccc2)C(=O)N1C` [Example 3232] ({CH2CO}-F[NMeF][NMeNle][Sar]DVWY[Sar]WYLCG-NH2; thioether N-13) and `CCCC[C@H]1C(=O)N(C)CC(=O)N[C@@H](CC(=O)O)C(=O)N[C@@H](C(C)C)C(=O)N(C)[C@@H](Cc2ccccc2)C(=O)N[C@@H](Cc2ccc(O)cc2)C(=O)N(C)CC(=O)N[C@@H](Cc2c[nH]c3ccccc23)C(=O)N[C@@H](Cc2ccc(O)cc2)C(=O)N[C@@H](CC(C)C)C(=O)N[C@H](C(=O)NCC(N)=O)CSCC(=O)N[C@@H](Cc2ccc3ccccc3c2)C(=O)N(C)[C@@H](Cc2ccccc2)C(=O)N1C` [Example 3233] ({CH2CO}-[2Nal][NMeF][NMeNle][Sar]DV[NMeF]Y[Sar]WYLCG-NH2; thioether N-13) fall in the same range of IC50: 1000 to 10000 nM for the first, 1000 to 10000 nM for the second.

`CCCC[C@H]1C(=O)N(C)CC(=O)N[C@@H](CC(=O)O)C(=O)N[C@@H](C(C)C)C(=O)N(C)[C@@H](Cc2ccccc2)C(=O)N[C@@H](Cc2ccc(O)cc2)C(=O)N(C)CC(=O)N[C@@H](Cc2c[nH]c3ccc(Cl)cc23)C(=O)N[C@@H](Cc2ccc(O)cc2)C(=O)N[C@@H](CC(C)C)C(=O)N[C@H](C(=O)NCC(N)=O)CSCC(=O)N[C@@H](Cc2ccccc2)C(=O)N(C)[C@@H](Cc2ccccc2)C(=O)N1C` [Example 3236] ({CH2CO}-F[NMeF][NMeNle][Sar]DV[NMeF]Y[Sar][Trp(5-Cl)]YLCG-NH2; thioether N-13) and `CCCC[C@H]1C(=O)N(C)CC(=O)N[C@@H](CC(=O)O)C(=O)N[C@@H](C(C)C)C(=O)N(C)[C@@H](Cc2ccccc2)C(=O)N[C@@H](Cc2ccc(O)cc2)C(=O)N(C)CC(=O)NC(Cc2c[nH]c3ncccc23)C(=O)N[C@@H](Cc2ccc(O)cc2)C(=O)N[C@@H](CC(C)C)C(=O)N[C@H](C(=O)NCC(N)=O)CSCC(=O)N[C@@H](Cc2ccccc2)C(=O)N(C)[C@@H](Cc2ccccc2)C(=O)N1C` (stereo partly drawn) [Example 3239] ({CH2CO}-F[NMeF][NMeNle][Sar]DV[NMeF]Y[Sar][ξTrp(7-aza)]YLCG-NH2; thioether N-13) fall in the same range of IC50: 10 to 99.9 nM for the first, 10 to 99.9 nM for the second.

First: CCCC[C@H]1C(=O)N(C)CC(=O)N[C@@H](CC(N)=O)C(=O)N[C@@H](C(C)C)C(=O)N(C)[C@@H](Cc2ccccc2)C(=O)N[C@@H](Cc2ccc(O)cc2)C(=O)N(C)CC(=O)N[C@@H](Cc2c[nH]c3ccccc23)C(=O)N[C@@H](Cc2ccc(O)cc2)C(=O)N[C@@H](CC(C)C)C(=O)N[C@H](C(=O)NCC(N)=O)CSCC(=O)N[C@@H](Cc2ccccc2)C(=O)N(C)[C@@H](Cc2ccccc2)C(=O)N1C [Example 3237] ({CH2CO}-F[NMeF][NMeNle][Sar]NV[NMeF]Y[Sar]WYLCG-NH2; thioether N-13)
Second: CCCC[C@H]1C(=O)N(C)CC(=O)N[C@@H](CC(=O)O)C(=O)N[C@@H](C(C)C)C(=O)N(C)[C@@H](Cc2ccccc2)C(=O)N[C@@H](Cc2ccc(O)cc2)C(=O)N(C)CC(=O)N[C@@H](Cc2c[nH]c3ccccc23)C(=O)N[C@@H](Cc2ccc(O)cc2)C(=O)N[C@@H](CC(C)C)C(=O)N[C@H](C(=O)NCC(N)=O)CSCC(=O)N[C@@H](CC2CCCCC2)C(=O)N(C)[C@@H](Cc2ccccc2)C(=O)N1C [Example 3238] ({CH2CO}-[Cha][NMeF][NMeNle][Sar]DV[NMeF]Y[Sar]WYLCG-NH2; thioether N-13)
The IC50 of the first is lower: 10 to 99.9 nM for the first, 100 to 990 nM for the second. The first is the more potent here.

`CCCC[C@H]1C(=O)N(C)CC(=O)N[C@@H](CC(=O)O)C(=O)N[C@@H](C(C)C)C(=O)N(C)[C@@H](Cc2ccccc2)C(=O)N[C@@H](Cc2ccc(O)cc2)C(=O)N(C)CC(=O)NC(Cc2c[nH]c3ncccc23)C(=O)N[C@@H](Cc2ccc(O)cc2)C(=O)N[C@@H](CC(C)C)C(=O)N[C@H](C(=O)NCC(N)=O)CSCC(=O)N[C@@H](CC2CCCCC2)C(=O)N(C)[C@@H](Cc2ccccc2)C(=O)N1C` (stereo partly drawn) [Example 3240] ({CH2CO}-[Cha][NMeF][NMeNle][Sar]DV[NMeF]Y[Sar][ξTrp(7-aza)]YLCG-NH2; thioether N-13) gave an IC50 of 100 to 990 nM.

Same assay, conditions: PD-L1-His 10 nM, PD-1-Ig 20 nM; read-out: HTRF Human PD-L1/PD-1 Binding Assay IC50

With `CCCC[C@H]1C(=O)N(C)CC(=O)N[C@@H](CC(=O)O)C(=O)N[C@@H](C(C)C)C(=O)N[C@@H](Cc2c[nH]c3ccccc23)C(=O)N[C@@H](Cc2c[nH]c3ccccc23)C(=O)N(C)CC(=O)N[C@@H](Cc2c[nH]c3ccccc23)C(=O)N[C@@H](Cc2ccc(O)cc2)C(=O)N[C@@H](CC(C)C)C(=O)N[C@H](C(=O)NCC(N)=O)CSCC(=O)N[C@@H](Cc2ccccc2)C(=O)N(C)[C@@H](Cc2ccccc2)C(=O)N1C` [Example 3234] ({CH2CO}-F[NMeF][NMeNle][Sar]DVWW[Sar]WYLCG-NH2; thioether N-13) the IC50 was 10000 nM.
